Measurements as given in PubChem BioAssay AID248 (DTP/NCI, 2004).
Toxic doses and inconclusive results are not listed. No stated cut-off is given here; in the data, active means T/C of 150% or more; inactive means T/C below 125%.

Test system: L1210 leukemia ip in BDF1 mice, survival T/C
Test: NCI In Vivo Anticancer Drug Screen. Data for tumor model L1210 Leukemia (intraperitoneal) in B6D2F1 (BDF1) mice
Conditions: endpoint: mean survival time, higher = longer survival
Procedure, shortened: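 Mice bearing the transplanted tumor received compound or vehicle. Survival of the treated group was divided by that of the vehicle-treated control group to give the ratio.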

[1] = dose: 100.0 mg/kg/injection, schedule: Q01DX009 (ip), vehicle: saline with Tween-80
[2] = dose: 100.0 mg/kg/injection, schedule: Q04DX003 (ip), vehicle: saline with Tween-80
[3] = dose: 200.0 mg/kg/injection, schedule: Q01DX009 (ip), vehicle: saline with Tween-80
[4] = dose: 200.0 mg/kg/injection, schedule: Q04DX003 (ip), vehicle: saline with Tween-80
[5] = dose: 400.0 mg/kg/injection, schedule: Q04DX002 (ip), vehicle: saline with Tween-80
[6] = dose: 400.0 mg/kg/injection, schedule: Q04DX003 (ip), vehicle: saline with Tween-80
[7] = dose: 50.0 mg/kg/injection, schedule: Q01DX009 (ip), vehicle: saline
[8] = dose: 100.0 mg/kg/injection, schedule: Q01DX009 (ip), vehicle: saline
[9] = dose: 100.0 mg/kg/injection, schedule: Q01DX001 (ip), vehicle: saline
[10] = dose: 200.0 mg/kg/injection, schedule: Q01DX001 (ip), vehicle: saline
[11] = dose: 75.0 mg/kg/injection, schedule: Q01DX001 (ip), vehicle: carboxymethylcellulose (CMC)
[12] = dose: 50.0 mg/kg/injection, schedule: Q01DX009 (ip), vehicle: saline with Tween-80
[13] = dose: 100.0 mg/kg/injection, schedule: Q04DX003 (ip), vehicle: saline

Measured: T/C

CCCC(=O)OC1CC(C)CCC1C(C)C (stereo not drawn)
inactive: dose: 25.6 mg/kg/injection, schedule: Q04DX002 (ip), vehicle: saline with Tween-80 96 % of control | dose: 64.0 mg/kg/injection, schedule: Q04DX002 (ip), vehicle: saline with Tween-80 96 % of control | [1] 90 % of control | [2] 88 % of control | dose: 160.0 mg/kg/injection, schedule: Q04DX002 (ip), vehicle: saline with Tween-80 92 % of control | [3] 94 % of control | [4] 94 % of control | dose: 400.0 mg/kg/injection, schedule: Q01DX009 (ip), vehicle: saline with Tween-80 92 % of control | [5] 96 % of control | [6] 100 % of control

Cc1nc2c([N+](=O)[O-])cccn2n1
inactive: dose: 100.0 mg/kg/injection, schedule: Q01DX001 (ip), vehicle: acetone 98 % of control

C=CC[n+]1ccc2ccccc2c1
inactive: dose: 25.0 mg/kg/injection, schedule: Q01DX009 (ip), vehicle: saline 108 % of control | [7] 102 % of control | [8] 105 % of control

Cn1cc(C(=O)O)c(=O)c2ccc(/C=C/c3ccc([N+](=O)[O-])o3)nc21
inactive: [9] 92 % of control | [10] 101 % of control | dose: 400.0 mg/kg/injection, schedule: Q01DX001 (ip), vehicle: saline 103 % of control

CC(C)(Oc1cccc2ccccc12)C(=O)O
inactive: [2] 100 % of control | [4] 105 % of control | [6] 93 % of control

Cc1ccc(Br)c([N+](=O)[O-])c1
inactive: dose: 22.2 mg/kg/injection, schedule: Q01DX001 (ip), vehicle: carboxymethylcellulose (CMC) 93 % of control | dose: 33.35 mg/kg/injection, schedule: Q01DX001 (ip), vehicle: carboxymethylcellulose (CMC) 93 % of control | dose: 50.0 mg/kg/injection, schedule: Q01DX001 (ip), vehicle: carboxymethylcellulose (CMC) 93 % of control | [11] 110 % of control | dose: 100.0 mg/kg/injection, schedule: Q01DX001 (ip), vehicle: carboxymethylcellulose (CMC) 109 % of control | dose: 200.0 mg/kg/injection, schedule: Q01DX001 (ip), vehicle: carboxymethylcellulose (CMC) 115 % of control | dose: 400.0 mg/kg/injection, schedule: Q01DX001 (ip), vehicle: carboxymethylcellulose (CMC) 107 % of control

CCC(N)(CC)C(=O)O
inactive: [7] 102 % of control | [8] 98 % of control | dose: 200.0 mg/kg/injection, schedule: Q01DX009 (ip), vehicle: saline 95 % of control

CCCc1c(OCC)c(OC)c2c3c(c(-c4c(C)cc5c(CCC)c(OCC)c(OC)c6c5c4OC6NNc4ccccc4)c(C)cc13)OC2NNc1ccccc1 (stereo not drawn)
inactive: dose: 75.0 mg/kg/injection, schedule: Q01DX001 (ip), vehicle: Klucel (hydroxypropylcellulose) (HPC) 98 % of control | dose: 150.0 mg/kg/injection, schedule: Q01DX001 (ip), vehicle: Klucel (hydroxypropylcellulose) (HPC) 93 % of control | dose: 300.0 mg/kg/injection, schedule: Q01DX001 (ip), vehicle: Klucel (hydroxypropylcellulose) (HPC) 91 % of control | dose: 300.0 mg/kg/injection, schedule: Q04DX003 (ip), vehicle: Klucel (hydroxypropylcellulose) (HPC) 87 % of control

O=C(Nc1cccc(C2=NCCN2)c1)c1ccc(-c2ccc(C(=O)Nc3cccc(C4=NCCN4)c3)cc2)cc1
inactive: dose: 50.0 mg/kg/injection, schedule: Q01DX Z (ip), vehicle: carboxymethylcellulose (CMC) 101 % of control | dose: 65.0 mg/kg/injection, schedule: Q01DX Z (ip), vehicle: methylcellulose (MC) 121 % of control | dose: 100.0 mg/kg/injection, schedule: Q01DX Z (ip), vehicle: carboxymethylcellulose (CMC) 120 % of control | dose: 100.0 mg/kg/injection, schedule: Q01DX Z (ip), vehicle: methylcellulose (MC) 113 % of control | dose: 400.0 mg/kg/injection, schedule: Q01DX Z (ip), vehicle: carboxymethylcellulose (CMC) 117 % of control

COc1ccc(OC)c(C2C(C#N)C(C=O)NC(C=O)C2C#N)c1 (stereo not drawn)
inactive: dose: 100.0 mg/kg/injection, schedule: Q04DX003 (ip), vehicle: other 107 % of control | dose: 200.0 mg/kg/injection, schedule: Q04DX003 (ip), vehicle: other 109 % of control | dose: 400.0 mg/kg/injection, schedule: Q04DX003 (ip), vehicle: other 107 % of control

NO
inactive: dose: 62.5 mg/kg/injection, schedule: Q01DX Z (oral), vehicle: saline 102 % of control | dose: 125.0 mg/kg/injection, schedule: Q01DX Z (oral), vehicle: saline 104 % of control | dose: 250.0 mg/kg/injection, schedule: Q01DX Z (oral), vehicle: saline 114 % of control

O=c1[nH]c2cc(Cl)ccc2c2c(Cl)cccc12
inactive: [11] 91 % of control | dose: 150.0 mg/kg/injection, schedule: Q01DX001 (ip), vehicle: carboxymethylcellulose (CMC) 91 % of control | dose: 300.0 mg/kg/injection, schedule: Q01DX001 (ip), vehicle: carboxymethylcellulose (CMC) 96 % of control

NCCc1cc(O)c(O)c(S(=O)(=O)c2ccccc2)c1
inactive: dose: 87.5 mg/kg/injection, schedule: Q01DX009 (ip), vehicle: saline 96 % of control | dose: 175.0 mg/kg/injection, schedule: Q01DX009 (ip), vehicle: saline 94 % of control | dose: 350.0 mg/kg/injection, schedule: Q01DX009 (ip), vehicle: saline 115 % of control

O=S(=O)(C1CCCCC1)N1N=NC2CCCCC21 (stereo not drawn)
inactive: [12] 93 % of control | [1] 90 % of control

Cc1ccc(-c2cn(CCCOc3ccccc3)c(=O)nc2N)cc1
inactive: dose: 50.0 mg/kg/injection, schedule: Q01DX001 (ip), vehicle: Klucel (hydroxypropylcellulose) (HPC) 89 % of control | dose: 100.0 mg/kg/injection, schedule: Q01DX001 (ip), vehicle: Klucel (hydroxypropylcellulose) (HPC) 99 % of control | dose: 200.0 mg/kg/injection, schedule: Q01DX001 (ip), vehicle: Klucel (hydroxypropylcellulose) (HPC) 87 % of control

CC(C)CCCC(C)C1CCC2C3CC=C4CC(=O)CCC4(C)C3CCC12C (stereo not drawn)
inactive: dose: 100.0 mg/kg/injection, schedule: Q04DX002 (ip), vehicle: saline with Tween-80 98 % of control | [5] 88 % of control

CNCCOCc1ccccc1
inactive: [9] 96 % of control | [10] 91 % of control

O=C(O)c1cc(Br)cc(Cl)c1Br
inactive: dose: 100.0 mg/kg/injection, schedule: Q04DX002 (ip), vehicle: Klucel (hydroxypropylcellulose) (HPC) 96 % of control | dose: 200.0 mg/kg/injection, schedule: Q04DX002 (ip), vehicle: Klucel (hydroxypropylcellulose) (HPC) 96 % of control

COc1ccc2c(c1O)C1(CCN(C)C)CC(=O)CCC1C=C2 (stereo not drawn)
inactive: dose: 75.0 mg/kg/injection, schedule: Q01DX001 (ip), vehicle: saline 96 % of control | dose: 150.0 mg/kg/injection, schedule: Q01DX001 (ip), vehicle: saline 100 % of control | dose: 300.0 mg/kg/injection, schedule: Q01DX001 (ip), vehicle: saline 89 % of control

CC(=O)Nc1ccc[n+](C)c1
inactive: [13] 108 % of control | dose: 200.0 mg/kg/injection, schedule: Q04DX003 (ip), vehicle: saline 105 % of control | dose: 400.0 mg/kg/injection, schedule: Q04DX003 (ip), vehicle: saline 100 % of control

CC1C[N-]CC(C)C1.[CH-]=C(C)C.[Cl][Pt+2][Cl] (stereo not drawn)
inactive: dose: 50.0 mg/kg/injection, schedule: Q04DX003 (ip), vehicle: saline 115 % of control | [13] 111 % of control

c1cc[c]([Sn]([c]2ccccc2)([c]2ccccc2)[c]2ccccc2)cc1
inactive: [12] 95 % of control | [1] 90 % of control | [3] 100 % of control
